This is an account of results in article PMC10186366 (ACS Pharmacology & Translational Science, 2023).

The target of one assay is T1, SHMT2 (Homo sapiens, UniProt P34897).
T1 construct: N-terminal His6-tagged SHMT2 (residues 30–504); made in house; host or cells: E. coli Rosetta (DE3)pLysS
T1 sequence (P34897 30-504): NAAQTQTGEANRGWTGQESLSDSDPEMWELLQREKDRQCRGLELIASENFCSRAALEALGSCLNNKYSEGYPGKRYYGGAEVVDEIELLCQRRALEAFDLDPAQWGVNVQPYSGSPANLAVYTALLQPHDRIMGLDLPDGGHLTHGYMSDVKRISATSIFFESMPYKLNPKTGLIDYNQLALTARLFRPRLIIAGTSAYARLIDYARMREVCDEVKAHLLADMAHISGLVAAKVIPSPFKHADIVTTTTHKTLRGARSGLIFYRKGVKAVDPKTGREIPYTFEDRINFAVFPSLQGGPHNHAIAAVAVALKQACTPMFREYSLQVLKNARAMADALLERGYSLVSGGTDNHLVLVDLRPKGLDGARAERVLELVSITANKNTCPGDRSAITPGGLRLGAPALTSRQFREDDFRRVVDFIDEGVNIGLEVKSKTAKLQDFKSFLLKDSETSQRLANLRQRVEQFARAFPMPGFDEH
Put plainly: SHMT2 coupled enzyme assay with MTHFD2 (NADH production). In kind it is biochemical. Conditions: mean (standard error), at least three replicate assays.

The subject of assay [1] is SHMT2 (mitochondrial C1 metabolism) in KB tumor cells. Put plainly: Targeted metabolomics flux analysis with [2,3,3-2H]serine in KB cells. In kind it is cell-based, human. The settings on record: 0.1 μM compound, 250 μM [2,3,3-2H]serine, versus vehicle-treated cells. An excerpt: Serine is catabolized in the mitochondria via SHMT2, which converts serine to glycine and 5,10-methylene THF, the latter of which is metabolized by MTHFD2 to 10-CHOTHF and by MTHFD1L to formate (Figure 7).
The cells were processed for liquid chromatography–mass spectrometry (LC–MS) analysis of total serine and glycine, and deuterated serine (M + 3, M + 2, M + 1, and M + 0 serine, where M + n represents species with n deuterium atoms) and glycine (M + 1 and M + 0) isotopomers. The results are shown in Figure 8 and are compared to those for control (vehicle-treated) cells (labeled “N/A”).
Figure 8 Metabolomics flux analysis with [2,3,3-^2H]serine to assay mitochondrial C1 metabolism via SHMT2. (A) A schematic of [2,3,3-^2H]serine metabolism is shown. Heavy (^2H) atoms in serine (colored circles) are metabolized via SHMT2 initially followed by MTHFD2 and MTHFD1L to formate. (B, C) Total serine and glycine and the distribution of the serine (M + n, n = 0−3) and glycine (n = 0 or 1) isotopomers are shown. The loss of M + 3 serine corresponding to the metabolism of [2,3,3-^2H]serine to M + 1 glycine is a direct measure of SHMT2 activity in the cells.[45] Experimental methods are described in the Experimental Section. Results are shown as mean values plus/minus standard deviations (n = 3). *P < 0.05; **P < 0.01. […]
KB cells (1 × 10[6]) were seeded in each of three 60 mm dishes in folate-, serine-, and glycine-free RPMI1640 supplemented with 10% DFBS, 1% penicillin/streptomycin, 2 mM L-glutamine, 285 μM serine, 130 μM glycine, and 2 nM leucovorin. […] The targeted metabolites were quantitatively determined using the AB Sciex QTRAP 6500 LC–MS/MS system. […] Isotopomers were detected using multiple reaction monitoring (MRM) at the positive ionization mode. […] Absolute metabolite concentrations were calculated from calibration curves and then normalized to total protein concentrations measured from the postextraction pellet (solubilized in 0.5 N NaOH) using the Folin-phenol method.[53] […] To correct for multiple comparisons, adjusted p values were determined using Holm’s method.

Assay [2] has as its system PC43-10 CHO cells (expresses only human RFC). Conditions: 96 h; mean (standard error); previously published; cited from earlier work.
Assay [3] deals with D4 CHO cells (expresses only human FRβ). Conditions: 96 h; mean (standard error); previously published; cited from earlier work.

As usually defined, the Ki is a measure of affinity in units of concentration, obtained from inhibition or displacement. Low values mean tighter binding, high ones weaker binding. The term IC50 denotes the concentration needed to halve the response being measured. In turn, `Nc1nc2sc(CCCc3ccc(C(=O)N[C@@H](CCC(=O)O)C(=O)O)cc3)cc2c(=O)[nH]1` [Compound 1] gave a Ki at SHMT2 of 67.3 µM. Besides, the “Increase in M + 3 serine” value in assay [1] was 2–4 fold. Besides, the results for the IC50 in assay [2] and in assay [3] were more than 1 µM and 0.112 µM, respectively.
Compound `Nc1nc2sc(CCCc3ccc(C(=O)N[C@@H](CCC(=O)O)C(=O)O)c(F)c3)cc2c(=O)[nH]1` [Compound 6, (4-(3-(2-Amino-4-oxo-3,4-dihydrothieno[2,3-d]pyrimidin-6-yl)propyl)-2-fluorobenzoyl)-L-glutamic Acid] showed a Ki on SHMT2 of 27.6 µM. Besides, the “Increase in M + 3 serine” value in assay [1] was 2–4 fold.
